Source: PubChem BioAssay AID248 (DTP/NCI, 2004)
“And” between values parts separate entries of the source, which are not always exact repeats. Equal entries are not always repeated. Toxic doses and inconclusive results are not listed.

Test system: L1210 leukemia ip in BDF1 mice, survival T/C
Experiment: NCI In Vivo Anticancer Drug Screen. Data for tumor model L1210 Leukemia (intraperitoneal) in B6D2F1 (BDF1) mice
Conditions: endpoint: mean survival time, higher = longer survival
Outline: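 Mice bearing the transplanted tumor received compound or vehicle. Survival of the treated group was divided by that of the vehicle-treated control group to give the ratio.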

[1] = dose: 100.0 mg/kg/injection, schedule: Q04DX003 (ip), vehicle: Klucel (hydroxypropylcellulose) (HPC)
[2] = dose: 200.0 mg/kg/injection, schedule: Q04DX003 (ip), vehicle: Klucel (hydroxypropylcellulose) (HPC)
[3] = dose: 100.0 mg/kg/injection, schedule: Q04DX002 (ip), vehicle: Klucel (hydroxypropylcellulose) (HPC)
[4] = dose: 200.0 mg/kg/injection, schedule: Q04DX002 (ip), vehicle: Klucel (hydroxypropylcellulose) (HPC)
[5] = dose: 400.0 mg/kg/injection, schedule: Q04DX002 (ip), vehicle: Klucel (hydroxypropylcellulose) (HPC)
[6] = dose: 100.0 mg/kg/injection, schedule: Q01DX001 (ip), vehicle: carboxymethylcellulose (CMC)
[7] = dose: 200.0 mg/kg/injection, schedule: Q01DX001 (ip), vehicle: carboxymethylcellulose (CMC)
[8] = dose: 400.0 mg/kg/injection, schedule: Q01DX001 (ip), vehicle: carboxymethylcellulose (CMC)
[9] = dose: 50.0 mg/kg/injection, schedule: Q01DX009 (ip), vehicle: Klucel (hydroxypropylcellulose) (HPC)
[10] = dose: 100.0 mg/kg/injection, schedule: Q01DX009 (ip), vehicle: Klucel (hydroxypropylcellulose) (HPC)
[11] = dose: 200.0 mg/kg/injection, schedule: Q01DX009 (ip), vehicle: Klucel (hydroxypropylcellulose) (HPC)
[12] = dose: 400.0 mg/kg/injection, schedule: Q01DX009 (ip), vehicle: Klucel (hydroxypropylcellulose) (HPC)
[13] = dose: 400.0 mg/kg/injection, schedule: Q04DX003 (ip), vehicle: Klucel (hydroxypropylcellulose) (HPC)
[14] = dose: 100.0 mg/kg/injection, schedule: Q01DX001 (ip), vehicle: other
[15] = dose: 200.0 mg/kg/injection, schedule: Q01DX001 (ip), vehicle: other
[16] = dose: 400.0 mg/kg/injection, schedule: Q01DX001 (ip), vehicle: other

In the case of `O=C(O)C(Sc1ccc(Cl)cc1)Sc1ccc(Cl)cc1`, the T/C (dose: 50.0 mg/kg/injection, schedule: Q04DX003 (ip), vehicle: Klucel (hydroxypropylcellulose) (HPC)) is reported as 103 % of control, the T/C [1] is reported as 103 % of control and the T/C [2] is reported as 95 % of control.

With `c1ccc(OCCOCCOc2ccccc2)cc1` the T/C (dose: 75.0 mg/kg/injection, schedule: Q01DX009 (ip), vehicle: Klucel (hydroxypropylcellulose) (HPC)) was 96 % of control, the T/C [3] was 98 % of control and the T/C (dose: 150.0 mg/kg/injection, schedule: Q01DX009 (ip), vehicle: Klucel (hydroxypropylcellulose) (HPC)) was 114 % of control. For the same molecule, the T/C [4] was 102 % of control, the T/C (dose: 300.0 mg/kg/injection, schedule: Q01DX009 (ip), vehicle: Klucel (hydroxypropylcellulose) (HPC)) was 96 % of control and the T/C [5] was 91 % of control.

In the case of `CCCCCCCCCCCCCCCCCCSC(=N)N`, the T/C (dose: 12.5 mg/kg/injection, schedule: Q01DX009 (ip), vehicle: saline with Tween-80) is reported as 101 % of control, the T/C (dose: 25.0 mg/kg/injection, schedule: Q01DX009 (ip), vehicle: saline with Tween-80) is reported as 98 % of control and the T/C (dose: 50.0 mg/kg/injection, schedule: Q01DX009 (ip), vehicle: saline with Tween-80) is reported as 95 % of control. The T/C (dose: 100.0 mg/kg/injection, schedule: Q01DX009 (ip), vehicle: saline with Tween-80) was 100 % of control.

With `COc1ccc(OC)c(NC(=O)c2cccc(N)c2)c1` the T/C [6] was 111 % of control, the T/C [7] was 105 % of control and the T/C [8] was 103 % of control.

`CCOC(=O)C1C2OC(=O)C(C(=O)C2CN(CCCl)CCCl)C1C1CC=C(CC2=CCC(C3C4C(=O)OC(C(CN(CCCl)CCCl)C4=O)C3C(=O)OCC)CC2)CC1` (centres undefined) was tested, and the T/C (dose: 6.25 mg/kg/injection, schedule: Q01DX009 (ip), vehicle: Klucel (hydroxypropylcellulose) (HPC)) was 108 % of control, the T/C (dose: 12.5 mg/kg/injection, schedule: Q01DX009 (ip), vehicle: Klucel (hydroxypropylcellulose) (HPC)) was 116 % of control and the T/C (dose: 25.0 mg/kg/injection, schedule: Q01DX009 (ip), vehicle: Klucel (hydroxypropylcellulose) (HPC)) was 158 % of control. The T/C (dose: 33.25 mg/kg/injection, schedule: Q04DX003 (ip), vehicle: Klucel (hydroxypropylcellulose) (HPC)) was 109 % of control, the T/C [9] was 114 % of control and 120 % of control and the T/C (dose: 66.5 mg/kg/injection, schedule: Q04DX003 (ip), vehicle: Klucel (hydroxypropylcellulose) (HPC)) was 109 % of control. For the same molecule, the T/C [1] was 114 % of control, the T/C (dose: 133.0 mg/kg/injection, schedule: Q04DX003 (ip), vehicle: Klucel (hydroxypropylcellulose) (HPC)) was 109 % of control and the T/C [2] was 120 % of control. For the same molecule, the T/C (dose: 266.0 mg/kg/injection, schedule: Q04DX003 (ip), vehicle: Klucel (hydroxypropylcellulose) (HPC)) was 117 % of control.

With `COC(=O)CCCCCCCCC(C)c1ccccc1` (centres undefined) the T/C [10] was 98 % of control, the T/C (dose: 100.0 mg/kg/injection, schedule: Q04DX003 (ip), vehicle: saline) was 103 % of control and the T/C [11] was 92 % of control. For the same molecule, the T/C (dose: 200.0 mg/kg/injection, schedule: Q04DX003 (ip), vehicle: saline) was 89 % of control, the T/C [12] was 97 % of control and the T/C (dose: 400.0 mg/kg/injection, schedule: Q04DX003 (ip), vehicle: saline) was 92 % of control.

In the case of `OC(CC(O)(C(F)(F)F)C(F)(F)F)c1cccc(Cl)c1` (centres undefined), the T/C (dose: 50.0 mg/kg/injection, schedule: Q01DX009 (ip), vehicle: gum acacia) is reported as 96 % of control, the T/C (dose: 100.0 mg/kg/injection, schedule: Q01DX009 (ip), vehicle: gum acacia) is reported as 94 % of control and the T/C (dose: 100.0 mg/kg/injection, schedule: Q04DX003 (ip), vehicle: gum acacia) is reported as 104 % of control. For the same molecule, the T/C (dose: 200.0 mg/kg/injection, schedule: Q04DX003 (ip), vehicle: gum acacia) was 95 % of control.

With `COc1ccc(NC(=O)Nc2ccc(CCO)cc2)c(OC)c1` the T/C [3] was 97 % of control, the T/C [4] was 93 % of control and the T/C [5] was 93 % of control.

For `Cc1cccc(Nc2cc(=S)nc(N)[nH]2)c1`, the T/C (dose: 100.0 mg/kg/injection, schedule: Q01DX Z (ip), vehicle: methylcellulose (MC)) was 98 % of control and the T/C (dose: 200.0 mg/kg/injection, schedule: Q01DX Z (ip), vehicle: methylcellulose (MC)) was 106 % of control.

In the case of `S=c1[nH]nc2scnn12`, the T/C (dose: 50.0 mg/kg/injection, schedule: Q01DX001 (ip), vehicle: carboxymethylcellulose (CMC)) is reported as 94 % of control, the T/C [6] is reported as 94 % of control and the T/C [7] is reported as 97 % of control. The T/C [8] was 94 % of control.

For `O=C1C2C(C(=O)N1c1ccc(Br)cc1)C1(Cl)C(Cl)=C(Cl)C2(Cl)C1(Cl)Cl` (centres undefined), the T/C [10] was 104 % of control, the T/C [1] was 101 % of control and the T/C [11] was 102 % of control. The T/C [2] was 111 % of control, the T/C [12] was 96 % of control and the T/C [13] was 104 % of control.

With `NC(=O)NN=C1CCCCCCCCCCC1` the T/C [14] was 95 % of control, the T/C (dose: 100.0 mg/kg/injection, schedule: Q04DX003 (ip), vehicle: saline with Tween-80) was 97 % of control and the T/C [15] was 95 % of control. For the same molecule, the T/C (dose: 200.0 mg/kg/injection, schedule: Q04DX003 (ip), vehicle: saline with Tween-80) was 105 % of control, the T/C [16] was 103 % of control and the T/C (dose: 400.0 mg/kg/injection, schedule: Q04DX003 (ip), vehicle: saline with Tween-80) was 94 % of control.

`CCCC1(CC)C(=O)N=C(N)NC1=O` (centres undefined) was tested, and the T/C (dose: 25.0 mg/kg/injection, schedule: Q01DX001 (ip), vehicle: Klucel (hydroxypropylcellulose) (HPC)) was 95 % of control and the T/C (dose: 50.0 mg/kg/injection, schedule: Q01DX001 (ip), vehicle: Klucel (hydroxypropylcellulose) (HPC)) was 104 % of control.

`COC(=O)c1ccccc1-n1cnc2ccccc2c1=O` was tested, and the T/C [3] was 101 % of control, the T/C [4] was 101 % of control and the T/C [5] was 93 % of control.

`CNc1cccc(C(=O)O)c1` was tested, and the T/C (dose: 100.0 mg/kg/injection, schedule: Q01DX001 (ip), vehicle: Klucel (hydroxypropylcellulose) (HPC)) was 91 % of control, the T/C [1] was 113 % of control and the T/C (dose: 200.0 mg/kg/injection, schedule: Q01DX001 (ip), vehicle: Klucel (hydroxypropylcellulose) (HPC)) was 102 % of control. The T/C [2] was 107 % of control, the T/C (dose: 400.0 mg/kg/injection, schedule: Q01DX001 (ip), vehicle: Klucel (hydroxypropylcellulose) (HPC)) was 98 % of control and the T/C [13] was 97 % of control.

In the case of `CC(=O)CC(=O)C(F)(F)F.[O]=[U]=[O]`, the T/C (dose: 0.37 mg/kg/injection, schedule: Q01DX009 (ip), vehicle: gum acacia) is reported as 99 % of control, the T/C (dose: 0.75 mg/kg/injection, schedule: Q01DX009 (ip), vehicle: gum acacia) is reported as 101 % of control and the T/C (dose: 1.5 mg/kg/injection, schedule: Q01DX009 (ip), vehicle: gum acacia) is reported as 101 % of control. For the same molecule, the T/C (dose: 6.25 mg/kg/injection, schedule: Q01DX005 (ip), vehicle: gum acacia) was 99 % of control, the T/C (dose: 6.25 mg/kg/injection, schedule: Q01DX009 (ip), vehicle: gum acacia) was 98 % of control and the T/C (dose: 12.5 mg/kg/injection, schedule: Q01DX005 (ip), vehicle: gum acacia) was 86 % of control. The T/C (dose: 12.5 mg/kg/injection, schedule: Q04DX002 (ip), vehicle: gum acacia) was 104 % of control and the T/C (dose: 25.0 mg/kg/injection, schedule: Q04DX002 (ip), vehicle: gum acacia) was 87 % of control.

In the case of `CCOc1ccc(NC(=S)NCCc2ccccc2)cc1`, the T/C [10] is reported as 102 % of control, the T/C [11] is reported as 102 % of control and the T/C [12] is reported as 105 % of control.

In the case of `O=C(Nc1cc(S(=O)(=O)O)cc2cc(S(=O)(=O)O)c(N=Nc3ccc([As](=O)(O)O)cc3)c(O)c12)c1ccc([N+](=O)[O-])cc1`, the T/C (dose: 200.0 mg/kg/injection, schedule: Q04DX003 (ip), vehicle: saline sonified) is reported as 92 % of control.

For `COc1ccc(CNCCNCc2ccc(OC)cc2)cc1`, the T/C [9] was 96 % of control, the T/C [10] was 100 % of control and the T/C (dose: 100.0 mg/kg/injection, schedule: Q01DX009 (ip), vehicle: water) was 98 % of control. The T/C [1] was 103 % of control, the T/C (dose: 100.0 mg/kg/injection, schedule: Q04DX003 (ip), vehicle: water) was 96 % of control and the T/C [11] was 96 % of control. For the same molecule, the T/C (dose: 200.0 mg/kg/injection, schedule: Q01DX009 (ip), vehicle: water) was 92 % of control, the T/C [2] was 94 % of control and the T/C (dose: 200.0 mg/kg/injection, schedule: Q04DX003 (ip), vehicle: water) was 100 % of control. The T/C (dose: 400.0 mg/kg/injection, schedule: Q01DX009 (ip), vehicle: water) was 89 % of control and the T/C (dose: 400.0 mg/kg/injection, schedule: Q04DX003 (ip), vehicle: water) was 100 % of control.

With `N#C/C(=C\c1ccncc1)c1ccccc1Cl` the T/C [14] was 91 % of control, the T/C [15] was 89 % of control and the T/C [16] was 96 % of control.
